Laboratory results from patent publication US20110269758A1, “NAPHTHYRIDINONES AS PROTEIN KINASE INHIBITORS” (MERCK PATENT GMBH, priority 2008, published 2011).
Where two headings read alike, the source gives them in different places.

Molecular target: T1, Aurora Kinase A (Homo sapiens, UniProt O14965)
T1 construct: full length Aurora A (1-403 amino acids); purchased Carna Biosciences 05-101
T1 sequence (O14965 1-403): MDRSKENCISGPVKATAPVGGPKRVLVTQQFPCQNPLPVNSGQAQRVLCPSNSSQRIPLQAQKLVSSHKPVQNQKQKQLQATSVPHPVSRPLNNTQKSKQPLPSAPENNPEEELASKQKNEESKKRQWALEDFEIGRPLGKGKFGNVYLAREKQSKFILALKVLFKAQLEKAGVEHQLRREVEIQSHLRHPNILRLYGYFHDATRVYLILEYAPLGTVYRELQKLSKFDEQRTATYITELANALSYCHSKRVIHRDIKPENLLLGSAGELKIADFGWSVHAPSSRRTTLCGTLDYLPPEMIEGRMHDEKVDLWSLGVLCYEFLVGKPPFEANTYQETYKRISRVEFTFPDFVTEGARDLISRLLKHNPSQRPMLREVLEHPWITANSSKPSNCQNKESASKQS
Test: Biochemical enzyme assay for Aurora A activity (Caliper LC3000 / Desktop Profiler mobility shift)
Description: The Aurora assays described here were performed on two Caliper Life Sciences systems, the LC3000 and the Desktop Profiler. These provide data on enzyme activity via measurement of the relative amounts of phosphorylated or unphosphorylated fluorescently labelled substrate peptide at the end of an enzymatic reaction. These different states of peptide are resolved by applying a potential difference across the sample. The presence of a charged phosphate group on the product (as opposed to the substrate) causes a different peptide mobility between the two peptides. This is visualized by excitation of a fluorescent label on the substrate and product peptides and represented as peaks within the analysis software.
In order to measure inhibitor activity of Aurora A inhibitors in the Caliper Life Sciences LC3000, a TTP Mosquito liquid handling instrument was used to place 0.25 μl of an appropriate concentration of inhibitor in 100% DMSO (for a dose response curve calculation) into each well of a 384-well plate.
The reaction was incubated for 90 min at 25° C., and then stopped by the addition of 70 μl of Stop buffer (100 mM HEPES pH 7.5, 0.015% Brij-35, 10 mM EDTA (Sigma, E7889)).
The plate was read on a Caliper LC 3000 in an Off-Chip mobility shift assay format, using the following parameters for a 12-sipper chip: screening pressure −1.8 psi, upstream voltage −2700, downstream voltage −1000. These conditions cause unphosphorylated substrate and phosphorylated product peptide to resolve as separate peaks allowing direct measurement of percentage of conversion of substrate to product.
The Desktop Profiler utilizes the same prinicipal as the LC 3000 for calculating percentage conversion of a substrate to product. Caliper Life Sciences provided proprietary flash frozen pre-made 384 well plates containing selected kinases. Each column in the 384 well plate contained a particular selected kinase. A second plate, the ‘substrate plate’ contained a mix of fluorescently labeled peptide substrate and ATP. These were arranged in columns so that transfer for substrate plate to enzyme plate provided the correct enzyme with the correct substrate/ATP concentration.
Compounds were added to a thawed enzyme plate in the desired format, in single concentrations. Reactions were initiated by transfer of the substrate/ATP mix from the substrate plate. The enzyme plate was incubated for 90 mins at 25° C. The reaction was stopped by addition of 70 μl of Stop Buffer (100 mM HEPES pH 7.5, 0.015% Brij-35, 10 mM EDTA (Sigma, E7889)).
Plates were read in a manner identical to that of the LC3000, and the ratio between substrate and product peaks provided the activity of the enzyme in that well.

[1] = GST-Aurora A, 15 μM ATP, 90 min at 25° C., LC3000 or Desktop Profiler, read-out: Aurora Kinase A IC50

| IC50 [1] | IC50 | Compound |
| --- | --- | --- |
| > 1000 nM | – | O=C(Nc1ccc(Nc2ccnc3[nH]c(=O)ccc23)cc1)c1cc(C(F)(F)F)cc(C(F)(F)F)c1 [Compound 49, 3,5-Bis(trifluoromethyl)-N-(4-(7-oxo-7,8-dihydro-1,8-naphthyridin-4-yl-amino)phenyl)benzamide] |
| 1 to 300 nM | – | O=C(Cc1cc2c(Nc3ccc(NC(=O)c4ccc(F)c(F)c4)cc3)ccnc2[nH]c1=O)NCCO [Compound 82] |
| 301 to 600 nM | – | CC(C)(C)C(=O)Nc1nccc(Cl)c1C=O [Compound 29, N-(4-chloro-3-formylpyridin-2-yl)-2,2-dimethylpropanamide] |
| 1 to 300 nM | – | Nc1ccc(NC(=O)c2ccc(Cl)cc2)cc1 [Compound 20, N-(4-Aminophenyl)-4-chloro-benzamide] |
| > 1000 nM | – | O=C(Nc1ccc(Nc2ncnc3[nH]c(=O)c(C(=O)O)cc23)cc1)c1ccccc1 [Compound 85, 4-(4-Benzoylamino-phenylamino)-7-oxo-7,8-dihydro-pyrido[2,3-d]pyrimidine-6-carboxylic acid] |
| 1 to 300 nM | – | O=C(Nc1ccc(Nc2ccnc3[nH]c(=O)c([N+](=O)[O-])cc23)cc1)c1ccc(F)c(F)c1 [Compound 87, 3,4-Difluoro-N-(4-(6-nitro-7-oxo-7,8-dihydro-1,8-naphthyridin-4-ylamino)phenyl)benzamide] |
| 1 to 300 nM | – | O=C(Nc1ccc(Nc2ccnc3[nH]c(=O)ccc23)cc1)c1c(F)cccc1F [Compound 41, 2,6-Difluoro-N-(4-(7-oxo-7,8-dihydro-1,8-naphthyridin-4-yl-amino)phenyl)benzamide] |
| > 1000 nM | – | CN(C)CCNC(=O)c1c(-c2ccccc2)c2c(Nc3ccc(NC(=O)c4ccc(F)c(F)c4)cc3)ccnc2[nH]c1=O [Compound 77, 5-[(3,4-Difluoro-benzoylamino)-phenylamino]-2-oxo-4-phenyl-1,2-dihydro-1,8-naphthyridine-3-carboxylic acid (2-dimethylamino-ethyl)-amide] |
| 1 to 300 nM | – | O=C(O)Cc1cc2c(Cl)ccnc2[nH]c1=O [Compound 80, (5-Chloro-2-oxo-1,2-dihydro-1,8-naphthyridin-3-yl)-acetic acid] |
| > 1000 nM | – | COC(=O)c1cc2c(Nc3ccc(NC(=O)c4ccccc4)cc3)ncnc2[nH]c1=O [Compound 84, 4-(4-Benzoylamino-phenylamino)-7-oxo-7,8-dihydro-pyrido[2,3-d]pyrimidine-6-carboxylic acid methyl ester] |
| 1 to 300 nM | – | Nc1ccc(NC(=O)c2cccc(C(F)(F)F)c2F)cc1 [Compound 7, N-(4-Aminophenyl)-2-fluoro-3-trifluoromethyl-benzamide] |
| 1 to 300 nM | – | Nc1ccc(NC(=O)C2CCCCC2)cc1 [Compound 13, Cyclohexanecarboxylic acid (4-aminophenyl)-amide] |
| 1 to 300 nM | – | O=C(Nc1ccc(Nc2ccnc3[nH]c(=O)ccc23)cc1)c1cccc(F)c1 [Compound 35, 3-Fluoro-N-(4-(7-oxo-7,8-dihydro-1,8-naphthyridin-4-yl-amino)phenyl)benzamide] |
| 1 to 300 nM | – | Nc1ccc(NC(=O)c2ccc3ccccc3c2)cc1 [Compound 15, Naphthalene-2-carboxylic acid (4-aminophenyl)-amide] |
| > 1000 nM | – | Nc1ncnc(Nc2ccc(NC(=O)c3ccccc3)cc2)c1C=O [Compound 83, N-[4-(6-Amino-5-formyl-pyrimidin-4-ylamino)-phenyl]-benzamide] |
| 1 to 300 nM | – | Nc1ccc(NC(=O)c2cc(F)cc(C(F)(F)F)c2)cc1 [Compound 19, N-(4-Aminophenyl)-3-fluoro-5-trifluoromethyl-benzamide] |
| 1 to 300 nM | – | O=C(Nc1ccc(Nc2ccnc3[nH]c(=O)c(C(=O)O)c(-c4ccccc4)c23)cc1)c1ccc(F)c(F)c1 [Compound 76, 5-[(3,4-Difluoro-benzoylamino)-phenylamino]-2-oxo-4-phenyl1,2-dihydro-1,8-naphthyridine-3-carboxylic acid] |
| 1 to 300 nM | – | O=C(Nc1ccc(Nc2ccnc3[nH]c(=O)ccc23)cc1)c1ccccc1 [Compound 32, N-(4-(7-oxo-7,8-dihydro-1,8-naphthyridin-4-yl-amino)phenyl)benzamide] |

| IC50 [1] | IC50 | Compound |
| --- | --- | --- |
| 1 to 300 nM | – | CN(C)C1CCN(c2ccc3c(Nc4ccc(C(=O)Nc5ccccc5)cc4)ccnc3n2)CC1 [Compound 64] |
| > 1000 nM | – | Nc1ccc(NC(=O)c2cccc3ccccc23)cc1 [Compound 24, Naphthalene-1-carboxylic acid (4-aminophenyl)-amide] |
| 1 to 300 nM | – | CC(C)(C)C(=O)Nc1cc(Cl)ccn1 [Compound 28, N-(4-chloropyridin-2-yl)-2,2-dimethylpropanamide] |
| 1 to 300 nM | – | Nc1ccc(NC(=O)c2c(Cl)cccc2Cl)cc1 [Compound 25, N-(4-Aminophenyl)-2,6-dichloro-benzamide] |
| 1 to 300 nM | – | O=c1ccc2c(Cl)ccnc2[nH]1 [Compound 31, 5-Chloro-1,8-naphthyridi-2(1H)-one] |
| 1 to 300 nM | – | Nc1ccc(NC(=O)c2cc(C(F)(F)F)cc(C(F)(F)F)c2)cc1 [Compound 14, N-(4-Aminophenyl)-3,5-bis-trifluoromethyl-benzamide] |
| 1 to 300 nM | – | O=C(Nc1ccc(Nc2ccnc3[nH]c(=O)ccc23)cc1)c1ccccc1F [Compound 34, 2-Fluoro-N-(4-(7-oxo-7,8-dihydro-1,8-naphthyridin-4-yl-amino)phenyl)benzamide] |
| – | 1 to 300 nM | COc1ccccc1C(=O)Nc1ccc(N)cc1 [Compound 16, N-(4-Aminophenyl)-2-methoxy-benzamide] |
| 301 to 600 nM | – | O=C(Nc1ccc(Nc2ccnc3[nH]c(=O)ccc23)cc1)c1ccc(F)cc1F [Compound 44, 2,4-Difluoro-N-(4-(7-oxo-7,8-dihydro-1,8-naphthyridin-4-yl-amino)phenyl)benzamide] |
| 1 to 300 nM | – | Nc1nccc(Cl)c1C(=O)c1ccccc1 [Compound 74, (2-Amino-4-chloro-pyridin-3-yl)-phenyl-methanone] |
| > 1000 nM | – | O=C(Nc1ccccc1)c1ccc(Nc2ccnc3[nH]c(=O)ccc23)cc1 [Compound 48, 4-(7-Oxo-7,8-dihydro-1,8-naphthyridin-4-ylamino)-N-phenyl-benzamide] |
| 1 to 300 nM | – | O=C(Nc1ccc(Nc2ccnc3[nH]c(=O)ccc23)cc1)c1ccc(F)cc1C(F)(F)F [Compound 40, 4-Fluoro-2-trifluoromethyl-N-(4-(7-oxo-7,8-dihydro-1,8-naphthyridin-4-yl-amino)phenyl)benzamide] |
| 1 to 300 nM | – | O=C(Nc1ccc(Nc2ccnc3[nH]c(=O)ccc23)cc1)c1cc(F)cc(F)c1 [Compound 43, 3,5-Difluoro-N-(4-(7-oxo-7,8-dihydro-1,8-naphthyridin-4-yl-amino)phenyl)benzamide] |
| 1 to 300 nM | – | Nc1ccc(NC(=O)c2ccc(Cl)c(Cl)c2)cc1 [Compound 26, N-(4-Aminophenyl)-3,4-dichloro-benzamide] |
| 1 to 300 nM | – | Nc1ccc(NC(=O)c2ccc(Cl)cc2Cl)cc1 [Compound 27, N-(4-Aminophenyl)-2,4-dichloro-benzamide] |
| 601 to 1000 nM | – | O=C(Nc1ccc(Nc2ccnc3[nH]c(=O)ccc23)cc1)c1ccc(OC(F)(F)F)cc1 [Compound 56, 4-Trifluoromethoxy-N-(4-(7-oxo-7,8-dihydro-1,8-naphthyridin-4-yl-amino)phenyl)benzamide] |
| 301 to 600 nM | – | Nc1ccc(NC(=O)c2ccc(F)c(F)c2)cc1 [Compound 10, N-(4-Aminophenyl)-3,4-difluoro-benzamide] |
